The source of these data is US10758534B2 (Vertex Pharmaceuticals Incorporated, priority 2014, dated 2020).

The target of the assay is T1, F508del (Homo sapiens, UniProt P13569, DEL508-508).
T1 construct: expressed in transfected cells
T1 sequence (P13569 with tags, fused parts or gaps DEL508-508): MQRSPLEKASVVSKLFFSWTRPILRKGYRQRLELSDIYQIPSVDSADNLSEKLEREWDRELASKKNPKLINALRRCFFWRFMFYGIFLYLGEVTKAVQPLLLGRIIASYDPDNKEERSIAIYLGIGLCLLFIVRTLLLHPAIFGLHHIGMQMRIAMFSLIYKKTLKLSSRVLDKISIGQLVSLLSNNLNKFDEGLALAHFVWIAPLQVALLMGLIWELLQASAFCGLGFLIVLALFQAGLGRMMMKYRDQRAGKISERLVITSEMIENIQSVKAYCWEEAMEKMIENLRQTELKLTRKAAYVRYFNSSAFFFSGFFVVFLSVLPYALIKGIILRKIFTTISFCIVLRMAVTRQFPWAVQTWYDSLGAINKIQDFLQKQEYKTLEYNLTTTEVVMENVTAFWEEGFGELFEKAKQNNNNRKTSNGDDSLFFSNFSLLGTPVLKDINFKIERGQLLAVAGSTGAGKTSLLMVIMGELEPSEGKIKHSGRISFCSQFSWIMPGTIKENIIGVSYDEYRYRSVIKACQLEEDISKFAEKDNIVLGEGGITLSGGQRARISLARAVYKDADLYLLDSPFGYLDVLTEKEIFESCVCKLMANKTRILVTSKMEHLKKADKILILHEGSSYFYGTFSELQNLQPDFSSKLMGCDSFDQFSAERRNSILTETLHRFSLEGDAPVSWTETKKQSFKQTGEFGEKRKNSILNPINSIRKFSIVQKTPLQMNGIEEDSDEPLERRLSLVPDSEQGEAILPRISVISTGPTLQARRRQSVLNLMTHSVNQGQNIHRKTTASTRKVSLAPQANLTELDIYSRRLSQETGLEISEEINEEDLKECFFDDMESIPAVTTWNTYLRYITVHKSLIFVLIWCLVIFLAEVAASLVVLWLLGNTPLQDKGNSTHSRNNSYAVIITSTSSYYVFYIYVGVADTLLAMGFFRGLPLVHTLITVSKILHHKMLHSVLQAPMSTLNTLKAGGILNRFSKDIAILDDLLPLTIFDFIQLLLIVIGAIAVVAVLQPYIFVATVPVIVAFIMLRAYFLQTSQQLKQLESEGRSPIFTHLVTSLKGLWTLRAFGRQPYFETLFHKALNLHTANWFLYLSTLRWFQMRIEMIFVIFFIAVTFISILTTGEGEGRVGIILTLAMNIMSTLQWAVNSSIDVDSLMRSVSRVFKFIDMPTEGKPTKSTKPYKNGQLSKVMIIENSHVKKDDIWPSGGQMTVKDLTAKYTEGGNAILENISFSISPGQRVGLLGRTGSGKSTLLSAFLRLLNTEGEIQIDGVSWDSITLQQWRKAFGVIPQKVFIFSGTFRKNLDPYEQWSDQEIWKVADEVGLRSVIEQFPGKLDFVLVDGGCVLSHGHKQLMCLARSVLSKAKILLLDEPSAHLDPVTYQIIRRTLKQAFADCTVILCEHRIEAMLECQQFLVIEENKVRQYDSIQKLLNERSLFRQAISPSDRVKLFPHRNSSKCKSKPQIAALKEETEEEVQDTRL
In words: Protocol 1: membrane potential optical assay (FLIPR III, voltage sensing dye), identification of potentiator compounds. In kind it is cell-based. The following applies: Table 3, compounds of Table 1. A digest of the protocol: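 Mouse NIH 3T3 fibroblasts stably expressing F508del, temperature-corrected at 27 °C for 24 h, pretreated with compound, then loaded with voltage-sensing redistribution dye. Forskolin was added in a single step with a chloride gradient (chloride-free gluconate bath; Bath Solution #1 HEPES pH 7.4). Membrane-potential fluorescence read on FLIPR III.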
For `Cc1cc(C)c(Oc2nc(-c3ccc(CO)cc3)ccc2C(=O)NS(=O)(=O)c2cccc(N)n2)c(C)c1` [Compound 1183, N-[(6-amino-2-pyridyl)sulfonyl]-6-[4-(hydroxymethyl)phenyl]-2-(2,4,6-trimethylphenoxy)pyridine-3-carboxamide], the EC30 entry is recorded as “+ (“+” means greater than 10 uM)”.
In the case of `CC(C)COc1cc(F)cc(-c2ccc(C(=O)NS(=O)(=O)c3cccc(N)n3)c(N3CCC(C)CC3)n2)c1` [Compound 991, N-[(6-amino-2-pyridyl)sulfonyl]-6-(3-fluoro-5-isobutoxy-phenyl)-2-(4-methyl-1-piperidyl)pyridine-3-carboxamide] it was “+++ (“+++” means <3 uM)”.
Take `CC(C)COc1cc(F)cc(-c2ccc(C(=O)NS(=O)(=O)c3cccc(N)n3)c(N3CCC3(C)C)n2)c1` [Compound 1928, N-[(6-amino-2-pyridyl)sulfonyl]-2-(2,2-dimethylazetidin-1-yl)-6-(3-fluoro-5-isobutoxy-phenyl)pyridine-3-carboxamide]: the EC30 entry was “++ (“++” means between 3 uM and 10 uM)”.
Regarding `C[C@@H]1CN(c2nc(C3CCCCO3)ccc2C(=O)NS(=O)(=O)c2ccc[nH]c2=O)C(C)(C)C1` (stereo partly drawn) [Compound 1503, N-[(2-oxo-1H-pyridin-3-yl)sulfonyl]-6-tetrahydropyran-2-yl-2-[(4S)-2,2,4-trimethylpyrrolidin-1-yl]pyridine-3-carboxamide], the EC30 result was “++ (“++” means between 3 uM and 10 uM)”.
As for `Cc1ccc(-c2ccc(C(=O)NS(=O)(=O)c3ccc[nH]c3=O)c(Oc3ccc(C)cc3C)n2)cc1` [Compound 1129, 2-(2,4-dimethylphenoxy)-N-[(2-oxo-1H-pyridin-3-yl)sulfonyl]-6-(p-tolyl)pyridine-3-carboxamide], the EC30 entry is “++ (“++” means between 3 uM and 10 uM)”.
In the case of `COc1ccc(-c2ccc(C(=O)NS(=O)(=O)c3cccc(N)n3)c(Oc3c(C)cc(C)cc3C)n2)c(C)n1` [Compound 1212, N-[(6-amino-2-pyridyl)sulfonyl]-6-(6-methoxy-2-methyl-3-pyridyl)-2-(2,4,6-trimethylphenoxy)pyridine-3-carboxamide] it was “+++ (“+++” means <3 uM)”.
Take `COc1ccc(-c2ccc(C(=O)NS(=O)(=O)c3cccc(N)n3)c(Oc3c(C)cc(C)cc3C)n2)c(OC)c1` [Compound 950, N-[(6-amino-2-pyridyl)sulfonyl]-6-(2,4-dimethoxyphenyl)-2-(2,4,6-trimethylphenoxy)pyridine-3-carboxamide]: the EC30 entry was “+++ (“+++” means <3 uM)”.
For the compound `CC(C)COc1cc(F)cc(-c2ccc(C(=O)NS(=O)(=O)c3ccn[nH]3)c(N3C[C@H](C)CC3(C)C)n2)c1` [Compound 1176, 6-(3-fluoro-5-isobutoxy-phenyl)-N-(1H-pyrazol-5-ylsulfonyl)-2-[(4R)-2,2,4-trimethylpyrrolidin-1-yl]pyridine-3-carboxamide], the EC30 result is recorded as “+++ (“+++” means <3 uM)”.
In the case of `C[C@@H]1CN(c2nc(C(C)(C)C)ccc2C(=O)NS(=O)(=O)c2cccc(N)n2)C(C)(C)C1` [Compound 985, N-[(6-amino-2-pyridyl)sulfonyl]-6-tert-butyl-2-[(4S)-2,2,4-trimethylpyrrolidin-1-yl]pyridine-3-carboxamide] it was “+++ (“+++” means <3 uM)”.
Take `COc1cccc(-c2ccc(C(=O)NS(=O)(=O)c3cccc(N)n3)c(Oc3c(C)cc(C)cc3C)n2)n1` [Compound 1034, N-[(6-amino-2-pyridyl)sulfonyl]-6-(6-methoxy-2-pyridyl)-2-(2,4,6-trimethylphenoxy)pyridine-3-carboxamide]: the EC30 entry was “+++ (“+++” means <3 uM)”.
In the case of `C[C@@H]1CN(c2nc(C#N)ccc2C(=O)NS(=O)(=O)c2cccc(N)n2)C(C)(C)C1` [Compound 1564, N-[(6-amino-2-pyridyl)sulfonyl]-6-cyano-2-[(4S)-2,2,4-trimethylpyrrolidin-1-yl]pyridine-3-carboxamide] it was “++ (“++” means between 3 uM and 10 uM)”.
Regarding `Cc1cc(-c2ccc(C(=O)NS(=O)(=O)c3cccc(N)n3)c(N3C[C@@H](C)CC3(C)C)n2)cnc1OCCOC(C)C` [Compound 1973, N-[(6-amino-2-pyridyl)sulfonyl]-6-[6-(2-isopropoxyethoxy)-5-methyl-3-pyridyl]-2-[(4S)-2,2,4-trimethylpyrrolidin-1-yl]pyridine-3-carboxamide], the EC30 entry is “+++ (“+++” means <3 uM)”.
In the case of `CC1CN(c2ncccc2C(=O)NS(=O)(=O)c2cccc(Nc3cc(F)c(F)cc3F)n2)C(C)(C)C1` (stereo not drawn) [Compound 1796, N—[[6-(2,4,5-trifluoroanilino)-2-pyridyl]sulfonyl]-2-(2,2,4-trimethylpyrrolidin-1-yl)pyridine-3-carboxamide] it was “+++ (“+++” means <3 uM)”.
As for `Cc1cc(C)c(Oc2nc(-c3ccc(OCC4CC4)cc3)ccc2C(=O)NS(=O)(=O)c2ccc[nH]c2=O)c(C)c1` [Compound 1007, 6-[4-(cyclopropylmethoxy)phenyl]-N-[(2-oxo-1H-pyridin-3-yl)sulfonyl]-2-(2,4,6-trimethylphenoxy)pyridine-3-carboxamide], the entry is “+++ (“+++” means <3 uM)”.
In the case of `CC(C)COc1cc(F)cc(-c2ccc(C(=O)NS(=O)(=O)c3cccc(N)n3)c(N3CCCC4(CCC4)C3)n2)c1` [Compound 1264, N-[(6-amino-2-pyridyl)sulfonyl]-2-(8-azaspiro[3.5]nonan-8-yl)-6-(3-fluoro-5-isobutoxy-phenyl)pyridine-3-carboxamide], the EC30 result is reported as “+++ (“+++” means <3 uM)”.
As for `CC1CN(c2nc(-c3cnc(OC(C)C)nc3)ccc2C(=O)NS(=O)(=O)c2cccc(N)n2)C(C)(C)C1` (stereo not drawn) [Compound 844, N-[(6-amino-2-pyridyl)sulfonyl]-6-(2-isopropoxypyrimidin-5-yl)-2-(2,2,4-trimethylpyrrolidin-1-yl)pyridine-3-carboxamide], the entry is “++ (“++” means between 3 uM and 10 uM)”.
On to `CCOc1cccc2c1CN(Cc1c(C)cc(C)cc1C)C2(C)C(=O)NS(=O)(=O)c1ccc(N)cc1` (stereo not drawn) [Compound 1480, N-(4-aminophenyl)sulfonyl-4-ethoxy-1-methyl-2-[(2,4,6-trimethylphenyl)methyl]isoindoline-1-carboxamide], for which the EC30 entry was “+++ (“+++” means <3 uM)”.
In the case of `CC(C)COc1cc(F)cc(-c2ccc(C(=O)NS(=O)(=O)c3cccnc3N)c(N3C[C@H](C)CC3(C)C)n2)c1` [Compound 1444, N-[(2-amino-3-pyridyl)sulfonyl]-6-(3-fluoro-5-isobutoxy-phenyl)-2-[(4R)-2,2,4-trimethylpyrrolidin-1-yl]pyridine-3-carboxamide] it was “+++ (“+++” means <3 uM)”; in that of `COCC1CCCN(c2nc(-c3cc(F)cc(OCC(C)C)c3)ccc2C(=O)NS(=O)(=O)c2ccn[nH]2)C1` (stereo not drawn) [Compound 1028, 6-(3-fluoro-5-isobutoxy-phenyl)-2-[3-(methoxymethyl)-1-piperidyl]-N-(1H-pyrazol-5-ylsulfonyl)pyridine-3-carboxamide], “++ (“++” means between 3 uM and 10 uM)”; in that of `CC(C)Oc1ccc(-c2ccc(C(=O)NS(=O)(=O)c3cccc(N)n3)c(N3CCC[C@@H]3C(F)(F)F)n2)cn1` [Compound 1230, N-[(6-amino-2-pyridyl)sulfonyl]-6-(6-isopropoxy-3-pyridyl)-2-[(2R)-2-(trifluoromethyl)pyrrolidin-1-yl]pyridine-3-carboxamide], “++ (“++” means between 3 uM and 10 uM)”.
In the case of `CC(C)COc1cc(F)cc(-c2ccc(C(=O)NS(=O)(=O)c3cccc(N)n3)c(OC3C(C)CCCC3C)n2)c1` (stereo not drawn) [Compound 978, N-[(6-amino-2-pyridyl)sulfonyl]-2-(2,6-dimethylcyclohexoxy)-6-(3-fluoro-5-isobutoxy-phenyl)pyridine-3-carboxamide] it was “+++ (“+++” means <3 uM)”.
In the case of `COc1ccc(CN(C)c2cccc(S(=O)(=O)NC(=O)c3cccnc3N3CC(C)CC3(C)C)n2)cc1` (stereo not drawn) [Compound 1717, N—[[6-[(4-methoxyphenyl)methyl-methyl-amino]-2-pyridyl]sulfonyl]-2-(2,2,4-trimethylpyrrolidin-1-yl)pyridine-3-carboxamide], the EC30 entry is recorded as “+++ (“+++” means <3 uM)”.
Regarding `Cc1ccc(-c2ccc(C(=O)NS(=O)(=O)c3cccc(N)n3)c(N3C[C@@H](C)CC3(C)C)n2)cc1F` [Compound 1922, N-[(6-amino-2-pyridyl)sulfonyl]-6-(3-fluoro-4-methyl-phenyl)-2-[(4S)-2,2,4-trimethylpyrrolidin-1-yl]pyridine-3-carboxamide], the EC30 result is given as “+++ (“+++” means <3 uM)”.
With `CC(C)Oc1ccc(-c2ccc(C(=O)NS(=O)(=O)c3cccc(N)n3)c(N3CC[C@@H](C)C3(C)C)n2)cn1` [Compound 992, N-[(6-amino-2-pyridyl)sulfonyl]-6-(6-isopropoxy-3-pyridyl)-2-[(3R)-2,2,3-trimethylpyrrolidin-1-yl]pyridine-3-carboxamide], the EC30 entry is recorded as “+++ (“+++” means <3 uM)”.
For `Cc1nccc(-c2cccc(S(=O)(=O)NC(=O)c3cc(C(C)(C)C)nn3Cc3c(C)cccc3C)c2)n1` [Compound 1496, 5-tert-butyl-2-[(2,6-dimethylphenyl)methyl]-N-[3-(2-methylpyrimidin-4-yl)phenyl]sulfonyl-pyrazole-3-carboxamide], the EC30 entry is listed as “+++ (“+++” means <3 uM)”.
As for `Cc1ccc(C)c(-c2ccc(C(=O)NS(=O)(=O)c3ccc[nH]c3=O)c(N3C[C@@H](C)CC3(C)C)n2)c1` [Compound 1990, 6-(2,5-dimethylphenyl)-N-[(2-oxo-1H-pyridin-3-yl)sulfonyl]-2-[(4S)-2,2,4-trimethylpyrrolidin-1-yl]pyridine-3-carboxamide], the entry is “+++ (“+++” means <3 uM)”; as for `C[C@@H]1CN(c2nc(N3C[C@@H](C)CC3(C)C)c(C(=O)NS(=O)(=O)c3cccc(N)n3)cc2F)C(C)(C)C1` [Compound 1673, N-[(6-amino-2-pyridyl)sulfonyl]-5-fluoro-2,6-bis[(4S)-2,2,4-trimethylpyrrolidin-1-yl]pyridine-3-carboxamide], “+++ (“+++” means <3 uM)”.
